Assay results: patent US11173127B2, “Potato protein nanoparticles” (priority 2013, dated 2021)
Entries after “also recorded” stand apart in the source; their conditions may differ.

How the values were obtained:
Assay type in all cases: physicochemical
[1] = VD retention at pH 2.5 and 25° C. (RP-HPLC); conditions: pH 2.5, 25° C., with 1.5 mg/ml potato protein vs without; VD 0.1 mg/ml
Procedure: The percentage of VD retention within the composition at pH 2.5, and 25° C. was also assessed, in the presence and absence of 1.5 mg/ml potato protein. VD concentration at time zero was 0.1 mg/ml. […] The measurements were done using RP-HPLC.

[2] = Dynamic light scattering particle size distribution; conditions: VD without potato protein, 10-50 ug/ml VD, phosphate buffer 25 mM pH 2.5, bimodal distribution
Procedure: Dynamic light scattering (DLS) was used to evaluate size distribution of the potato protein-VD complexes.
The particle size of VD without potato protein was measured with different concentration of VD—10, 25, 35 and 50 ug/ml VD in a phosphate buffer (25 mM, pH 2.5). In all concentrations a bimodal distribution was obtained, with diameter larger than 1500 nm.
The size distributions of the VD—potato protein nano-particles were also measured at several concentrations of VD—10, 25, 35 and 50 μg/ml VD. The size distributions (FIG. 3) consisted of two fractions. The first fraction (84% by volume) comprised the small nano-particles of about 15 nm diameter, while the second fraction comprised nano-particles whose average diameter was around 80 nm.

[3] = VD3 degradation under industrial pasteurization and hot-bottling conditions (88° C., 1 min); conditions: cooled 30 min to 30-35° C., pH 2.5, 100 μg/ml VD3, PP 1 mg/ml where present
Procedure: VD3 in phosphate buffer, and PP-VD3 nanoparticles were prepared at 1 mg/ml potato protein (PP) and 100 μg/ml VD3 at pH 2.5.
Samples (without a cap) were heated in a water bath for 1 min at 88° C. Following heat treatment, samples were capped and maintained at room temperature for 30 minutes until their temperature decreased to 30-35° C. Controls of VD3, PP and PP-VD3 nanoparticles, at pH 2.5, were extracted immediately without any heat treatment. The other samples were extracted at room temp after the above heat treatment.
VD3 was extracted and quantified using a protocol based on Haham, et al. (Haham, M., et al., Stability and bioavailability of vitamin D nanoencapsulated in casein micelles. Food & Function, 2012). The protocol, used on both aqueous solutions (with and without PP), was as follows: 1 ml of VD3-containing sample was put into a glass test tube. 3 ml of a 2:1 chloroform:methanol mixture was then added, and the tubes were vortexed for ˜20 seconds. […]
Following extraction, 1.5 ml of RP-HPLC mobile phase (methanol:acetonitrile:water 49.5:49.5:1, by volume) were added to the drying vial, given 15 minutes to equilibrate after vortexing, and then transferred to a 1.5 ml glass HPLC vial. […] In the mobile phase, VD3 has a local UV absorption maximum at 267 nm, and so the 267 nm chromatogram was used for VD3 quantification.

[4] = Simulated shelf life test at 23° C. and pH 2.5, exposed to light; conditions: pH 2.5, light
Procedure: PP-VD3 nanoparticles and VD3 suspensions were prepared in glass test tubes at pH 2.5, pasteurized for 1 min at 88° C. in open test tubes, and then capped, cooled and maintained at room temperature (23° C.) exposed to light, and followed with time. Samples for all shelf life tests were prepared without any preservative.
Samples of 1 ml containing 100 μg/ml VD3 in buffer and 1 mg/ml PP were prepared. The samples were individually prepared in order to perform total volume extractions, minimizing transfer/precipitation losses. Three tubes of each type were quantified immediately, to serve as control. All the remaining tubes were then pasteurized. Three tubes of each type were quantified immediately, to serve as reference. The other tubes were stored at the conditions described above. At each time point, three tubes of each type were taken from storage and their VD3 content was quantified. In all experiments, the tubes were stored covered with their lids to prevent evaporation.
Further tests that show the great advantage of the present invention in conferring exceptional stability to active ingredient is provided in FIG. 8. […] Thus, the shelf life test examined the VD3 stability at low pH (2.5) and exposure to light, during time.

[5] = Effect of potato protein on solubilization and transparency (visual); conditions: for appearance / turbidity of solution: 25 mM phosphate buffer pH 2.5, without potato protein
Procedure: First, the effect of potato protein on solubilization and transparency of vitamin D (VD) was assessed. Two aqueous buffer solutions (25 mM phosphate buffer, pH 2.5) containing the same concentration of VD (0.1 mg/ml) were used. Only one vial (left vial of FIG. 1a) also included 1.5 mg/ml potato protein. It is clearly seen that due to the presence of the potato protein, the solution containing VD is transparent, while the one devoid of potato protein is turbid.
Second, the effect of potato protein on solubilization and transparency of omega 3 was also assessed. Specifically, two aqueous buffer solutions (25 mM phosphate buffer, pH 2.5) contained the same concentration of 0.5 ul/ml omega 3 (ethyl ester DHA) colored with Nile red, which is only pink in a hydrophobic environment. One vial (left vial of FIG. 1b) also contained 1.5 mg/ml potato protein.
Thus, the potato protein nanoparticle solubilized the hydrophobic ingredient in a uniform, transparent, manner.

[6] = VD retention during pasteurization at 72° C. and pH 2.5 (RP-HPLC); conditions: pH 2.5, at least 60 seconds, with 1.5 mg/ml potato protein vs without, VD 0.1 mg/ml
Procedure: The percentage of VD retention within the composition was assessed during pasteurization at 72° C. and pH 2.5 for up to 60 seconds, in the presence and absence of 1.5 mg/ml potato protein. VD concentration at time zero was 0.1 mg/ml. The measurements were done using RP-HPLC. The samples were kept in the dark and the vials' head spaces were filled with argon to prevent oxidation until the analysis.

| SMILES | protection of VD (VD retention) [1] | particle diameter (DLS) [2] [nm] | VD degraded / lost by heat treatment [3] [%] | VD degraded / lost ([4]; after one week) | post-pasteurization VD3 lost ([4]; within 24 hours) [%] | appearance / transparency of solution ([5]; 25 mM phosphate buffer pH 2.5, with 1.5 mg/ml potato protein) | appearance / turbidity of solution [5] | protection against heat induced degradation (VD retention) [6] |
| --- | --- | --- | --- | --- | --- | --- | --- | --- |
| C=C1CC[C@H](O)C/C1=C/C=C1\CCC[C@]2(C)[C@@H]([C@H](C)CCCC(C)C)CC[C@@H]12 [VD, Vitamin D3] | significant protection | > 1500 | 55 | almost all | 52 | transparent | turbid; also recorded: much more turbid | significant protection |
| CC/C=C\C/C=C\C/C=C\C/C=C\C/C=C\C/C=C\CCC(=O)OCC [omega 3, omega 3 DHA (ethyl ester)] |  |  |  |  |  |  | much more turbid |  |
